Here are results for 17 compounds from patent US4863906A, “2'-deoxy-5-ethynyluridine-3',5'-diestens for treatment of VZV and CMV infections” (Burroughs Wellcome Co., priority 1985, dated 1989).

The subject of data set [1] is Human cytomegalovirus (HCMV). Kind of data set: HCMV plaque reduction assay in MRC5 or Detroit 532 cells. As to conditions: Human betaherpesvirus 5, MRC5, MRC5 or Detroit 532 cells. The format is cell-based. Here is the method: (§1) Human cytomegalovirus (HCMV) was assayed in monolayers of either MRC5 cells (human embryonic lung) or Detroit 532 cells (human foreskin fibroblasts) in multiwell trays. Activity of compounds was determined in the plaque reduction assay, in which a cell monolayer was infected with a suspension of HCMV, and then overlaid with nutrient agarose in the form of a gel to ensure that there was no spread of virus throughout the culture. A range of concentrations of compound of known molarity was incorporated in the nutrient agarose overlay. Plaque numbers at each concentration were expressed as percentages of the control and a dose-response curve was drawn. From this curve the 50% inhibitory concentration (IC50) was estimated.
For orientation: Plaque reduction counts the foci of infection that form in a cell layer.

The test system of data set [2] is Varicella zoster virus (VZV). Kind of data set: VZV assay in MRC5 cells (similar to HCMV plaque reduction, without agarose overlay). It counts as cell-based. As to the method:
as §1
Varicella zoster virus (VZV) was assayed in MRC5 cells by a similar method to that for HCMV with the omission of the agarose overlay.

The nature of data set [3]: Cell toxicity: cell growth inhibition assay in Vero cells (MTT uptake). Conditions: monkey, 50% inhibition of cell viability at 96 hours, read-out: CCID50 at 96 hr. The format is cell-based. Here is the method:
Cell toxicity was assessed in a cell growth inhibition assay. Subconfluent cultures of Vero cells grown on 96-well microtiter dishes were exposed to different dilutions of drug, and cell viability determined daily on replicate cultures using uptake of a tetrazolium dye (MTT). The concentration required for a 50% inhibition of cell viability at 96 hours is termed CCID50.

Data set [4] relates to Herpes simplex type 1 (HSV1). Kind of data set: HSV1 assay in Vero cells (similar to HCMV plaque reduction assay). The format is cell-based. As to conditions: read-out: IC50 HSV1. Here is the method:
as §1
Herpes simplex type 1 (HSV1) was assayed in Vero cells in a similar method to that described for the HCMV assay.

Data set [5] deals with certain DNA viruses. The data set is described as follows: Antiviral activity against certain DNA viruses (general statement). As to conditions: DNA viruses other than vaccinia and herpes simplex.
Data set [6] concerns vaccinia. As to conditions: Walker et al. 1978; UK 1 601 020; cited from earlier work.
Data set [7] has as its system herpes simplex viruses. Conditions: Walker et al. 1978; UK 1 601 020; cited from earlier work.
The mark [8] stands for this setting: Human alphaherpesvirus 3, MRC5, MRC5 cells, read-out: IC50 VZV.
Setting [9] is: Human alphaherpesvirus 1, Vero cells.

Read-outs that look alike come from different tables or passages of the source. A value given as a limit tells only on which side of the number the result lay.

The IC50 is the concentration that inhibits the measured activity by half. Consider `C#Cc1cn([C@H]2C[C@H](OC(=O)c3cccc(Cl)c3)[C@@H](COC(=O)c3cccc(Cl)c3)O2)c(=O)[nH]c1=O` [m-Cl Benzoyl/m-Cl Benzoyl], for which the half-maximal inhibitory concentration (IC50) in data set [1] stood at 2.7 µM; in data set [2] (setting [8]), 1.1 µM. Moreover, the CC50 at 96 h in data set [3] (vero cells) was above 100 µM.
With `C#Cc1cn([C@H]2C[C@H](O)[C@@H](COS(=O)(=O)c3ccc(C)cc3)O2)c(=O)[nH]c1=O` [H/p-Tosyl], the IC50 in data set [1] was 5.6 µM.
As for `C#Cc1cn([C@H]2C[C@H](O)[C@@H](CO)O2)c(=O)[nH]c1=O` [H/H, 2'-Deoxy-5-ethynyluridine], the IC50 is 0.06 to 0.3 µM in data set [2] (Human alphaherpesvirus 3, MRC5, read-out: IC50 VZV) and 4.5 µM in data set [4] (Human alphaherpesvirus 1, Vero). The CC50 at 96 h in data set [3] is 0.3 to 3 µM. In data set [5], the “Activity against certain DNA viruses” value is reported as “very potent activity”. Further, the Activity against vaccinia entry in data set [6] is given as “only moderate activity”. For the same compound, the “Activity against herpes simplex viruses” value in data set [7] was “only moderate activity”.
Turning to `C#Cc1cn([C@H]2C[C@H](O)[C@@H](COC(=O)c3cccc(Cl)c3)O2)c(=O)[nH]c1=O` [H/m-Cl Benzoyl], the IC50 was 0.46 µM in data set [1] and below 0.2 µM in data set [2] (setting [8]). For the same compound, the CC50 at 96 h in data set [3] (vero cells) amounted to 19 µM.
`C#Cc1cn([C@H]2C[C@H](O)[C@@H](COC(=O)c3ccc(C)cc3)O2)c(=O)[nH]c1=O` [H/p-Toluoyl, 2'-Deoxy-5-ethynyl-5'-O-toluoyluridine]: the IC50 is 3.4 µM in data set [1], above 20 µM in data set [2] (setting [8]) and above 20 µM in data set [4] (setting [9]). In data set [3] (vero cells), the CC50 at 96 h came to 0.8 µM.
Take `C#Cc1cn([C@H]2C[C@H](OC(=O)c3ccc(OC)cc3)[C@@H](COC(=O)c3ccc(OC)cc3)O2)c(=O)[nH]c1=O` [p-Anisoyl/p-Anisoyl, 2'-Deoxy-3',5'-di-O-p-anisoyl-5-ethynyluridine]: the values for the IC50 in data set [1], in data set [2] (setting [8]) and in data set [4] (setting [9]) were 20.7 µM, above 20 µM and above 20 µM, respectively. The CC50 at 96 h in data set [3] (vero cells) is above 100 µM.
As to `C#Cc1cn([C@H]2C[C@H](O)[C@@H](COC(=O)c3ccc(OC)cc3)O2)c(=O)[nH]c1=O` [H/p-Anisoyl, 5'-O-p-Anisoyl-2'-Deoxy-5-ethynyluridine], the IC50 in data set [1] was 2.8 to 3.7 µM; in data set [2] (setting [8]), above 20 µM; in data set [4] (setting [9]), above 20 µM. The CC50 at 96 h in data set [3] (vero cells) is 3 µM.
For `C#Cc1cn([C@H]2C[C@H](OS(C)(=O)=O)[C@@H](COS(C)(=O)=O)O2)c(=O)[nH]c1=O` [Methanesulphonyl/Methanesulphonyl, 2'-Deoxy-3'-5'-di-O-methanesulphonyl-5-ethynyluridine], the 50% inhibitory concentration (IC50) in data set [1] is above 50 µM; in data set [2] (setting [8]), 16 µM; in data set [4] (setting [9]) it was above 20 µM.
As to `C#Cc1cn([C@H]2C[C@H](O)[C@@H](COC(=O)C(C)(C)C)O2)c(=O)[nH]c1=O` [H/Pivaloyl, 2'-Deoxy-5-ethynyl-5'-O-pivaloyluridine], the IC50 in data set [1] is 0.4 µM; in data set [2] (setting [8]) it was 0.6 µM; in data set [4] (setting [9]) it was above 20 µM. For the same compound, in data set [3] (vero cells), the CC50 at 96 h came out at 10.2 µM.
For the compound `C#Cc1cn([C@H]2C[C@H](OC(=O)C3CC3)[C@@H](COC(=O)C3CC3)O2)c(=O)[nH]c1=O` [Cyclopropanoyl/Cyclopropanoyl, 2'-Deoxy-3',5'-di-O-cyclopropanoyl-5-ethynyluridine], the IC50 in data set [1] is 2 µM; in data set [2] (setting [8]), 24 µM; in data set [4] (setting [9]), above 20 µM. Moreover, the CC50 at 96 h in data set [3] (vero cells) was above 100 µM.
Consider `C#Cc1cn([C@H]2C[C@H](OC(C)=O)[C@@H](COC(C)=O)O2)c(=O)[nH]c1=O` [Acetyl/Acetyl, 2'-Deoxy-3'-5'-di-O-acetyl-5-ethynyluridine], for which the IC50 in data set [4] (setting [9]) is above 20 µM.
As to `C#Cc1cn([C@H]2C[C@H](O)[C@@H](COC(=O)CCCCCCC)O2)c(=O)[nH]c1=O` [H/Octanoyl, 2'-Deoxy-5-ethynyl-5'-O-octanoyluridine], the values for the IC50 in data set [1] and in data set [2] (setting [8]) were 2.2 µM and below 0.2 µM, respectively. Moreover, in data set [3] (vero cells), the CC50 at 96 h amounted to 1.8 µM.
As to `C#Cc1cn([C@H]2C[C@H](O)[C@@H](COC(=O)c3ccccc3)O2)c(=O)[nH]c1=O` [H/Benzoyl, 5'-O-Benzoyl-2'-deoxy-5-ethynyluridine], the IC50 in data set [1] is 0.3 µM; in data set [2] (setting [8]), 0.7 µM; in data set [4] (setting [9]), above 20 µM. In data set [3] (vero cells), the CC50 at 96 h was 1.3 µM.
In the same order, the values of `C#Cc1cn([C@H]2C[C@H](OC(=O)c3ccccc3)[C@@H](COC(=O)c3ccccc3)O2)c(=O)[nH]c1=O` [Benzoyl/Benzoyl, 2'-Deoxy-3',5'-di-O-benzoyl-5-ethynyluridine] are 4.7 µM, above 20 µM, above 20 µM and above 100 µM.
`C#Cc1cn([C@H]2C[C@H](OC(=O)c3ccc(C)cc3)[C@@H](COC(=O)c3ccc(C)cc3)O2)c(=O)[nH]c1=O` [p-Toluoyl/p-Toluoyl, 2'-Deoxy-3',5'-di-O-p-toluoyl-5-ethynyluridine]: the concentration for half-maximal inhibition (IC50) in data set [2] (setting [8]) and in data set [4] (setting [9]) was above 20 µM each time. In addition, the CC50 at 96 h in data set [3] (vero cells) is above 100 µM.
On to `C#Cc1cn([C@H]2C[C@H](OC(=O)C(C)(C)C)[C@@H](COC(=O)C(C)(C)C)O2)c(=O)[nH]c1=O` [Pivaloyl/Pivaloyl, 2'-Deoxy-5-ethynyl-3',5'-di-O-pivaloyl uridine], for which the IC50 in data set [1] was 2 µM; in data set [2] (setting [8]), 5.5 µM; in data set [4] (setting [9]), above 20 µM. Further, the CC50 at 96 h in data set [3] (vero cells) is above 100 µM.
The matching figures for `C#Cc1cn([C@H]2C[C@H](O)[C@@H](COC(=O)C3CC3)O2)c(=O)[nH]c1=O` [H/Cyclopropanoyl, 5'-O-Cyclopropanoyl-2'-deoxy-5-ethynyluridine]: 0.9 µM, 6.5 µM, above 20 µM and 15 µM.
